18 molecules from ChEMBL document CHEMBL1155531, “Structure guided design of 5-arylindazole glucocorticoid receptor agonists and antagonists” (J Med Chem, 2010) can be followed below.

Assay [1] addresses T1, Glucocorticoid receptor (Homo sapiens, UniProt P04150).
T1 sequence (P04150 whole entry): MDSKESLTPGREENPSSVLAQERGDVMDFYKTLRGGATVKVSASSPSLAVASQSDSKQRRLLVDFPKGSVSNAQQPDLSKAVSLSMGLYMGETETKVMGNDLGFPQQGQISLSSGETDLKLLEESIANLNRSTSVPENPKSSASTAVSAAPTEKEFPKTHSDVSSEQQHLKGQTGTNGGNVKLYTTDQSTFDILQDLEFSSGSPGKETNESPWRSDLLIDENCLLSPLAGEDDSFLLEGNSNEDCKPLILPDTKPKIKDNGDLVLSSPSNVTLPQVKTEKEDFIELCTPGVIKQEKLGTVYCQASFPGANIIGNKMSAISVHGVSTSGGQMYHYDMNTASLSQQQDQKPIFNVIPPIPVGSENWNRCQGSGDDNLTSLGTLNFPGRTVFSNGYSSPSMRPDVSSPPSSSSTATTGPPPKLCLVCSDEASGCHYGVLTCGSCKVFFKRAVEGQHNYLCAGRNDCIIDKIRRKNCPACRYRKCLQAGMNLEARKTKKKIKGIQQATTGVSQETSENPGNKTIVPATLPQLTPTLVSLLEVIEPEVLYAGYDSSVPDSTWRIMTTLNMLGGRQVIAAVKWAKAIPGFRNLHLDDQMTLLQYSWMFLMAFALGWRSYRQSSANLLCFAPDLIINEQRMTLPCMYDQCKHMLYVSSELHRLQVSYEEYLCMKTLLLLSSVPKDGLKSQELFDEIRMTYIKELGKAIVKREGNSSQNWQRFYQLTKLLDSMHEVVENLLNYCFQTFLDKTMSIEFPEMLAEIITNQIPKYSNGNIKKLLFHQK
The experiment in a line: Antagonist activity at GR in human A549 cells transfected with luciferase gene linked to MMTV promoter assessed as inhibition of dexamethasone-induced luciferase transactivation activity after 24 hrs. It counts as functional, cell-based.

Assay [2] deals with T1, Glucocorticoid receptor. Nature of the assay: Activity at GR in human A549 cells by NF-kappaB transrepression assay. It counts as cell-based.
A further assay concerns the target T2, Androgen receptor (Homo sapiens, UniProt P10275).
T2 sequence (P10275 whole entry): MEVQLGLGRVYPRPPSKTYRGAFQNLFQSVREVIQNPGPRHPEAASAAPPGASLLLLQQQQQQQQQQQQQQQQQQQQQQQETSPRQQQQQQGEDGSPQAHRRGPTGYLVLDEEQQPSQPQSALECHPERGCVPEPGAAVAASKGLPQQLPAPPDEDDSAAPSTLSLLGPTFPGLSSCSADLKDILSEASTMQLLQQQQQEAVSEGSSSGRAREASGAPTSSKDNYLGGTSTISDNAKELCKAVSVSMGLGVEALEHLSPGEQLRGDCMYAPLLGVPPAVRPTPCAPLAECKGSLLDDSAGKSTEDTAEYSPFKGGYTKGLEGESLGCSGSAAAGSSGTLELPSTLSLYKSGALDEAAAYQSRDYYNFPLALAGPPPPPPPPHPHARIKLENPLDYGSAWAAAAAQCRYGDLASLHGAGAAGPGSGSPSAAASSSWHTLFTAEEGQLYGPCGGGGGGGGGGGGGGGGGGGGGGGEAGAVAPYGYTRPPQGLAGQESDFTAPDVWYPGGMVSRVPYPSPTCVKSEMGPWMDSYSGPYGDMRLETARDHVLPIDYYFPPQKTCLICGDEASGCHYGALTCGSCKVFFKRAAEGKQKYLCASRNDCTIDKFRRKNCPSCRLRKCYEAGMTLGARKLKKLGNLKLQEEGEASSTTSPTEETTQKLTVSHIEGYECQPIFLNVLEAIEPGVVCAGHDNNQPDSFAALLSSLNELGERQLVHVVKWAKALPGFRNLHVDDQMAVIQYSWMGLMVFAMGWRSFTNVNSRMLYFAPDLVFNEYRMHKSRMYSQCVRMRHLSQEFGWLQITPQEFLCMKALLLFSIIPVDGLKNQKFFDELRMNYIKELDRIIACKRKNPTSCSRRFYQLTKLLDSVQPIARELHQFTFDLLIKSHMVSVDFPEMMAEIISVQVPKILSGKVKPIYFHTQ

For assay [3], the target named is T1, Glucocorticoid receptor. The experiment in a line: Displacement of fluorescent-labeled Dexamethasone from GR by fluorescent polarization assay.
Another assay addresses T3, Progesterone receptor (Homo sapiens, UniProt P06401).
T3 sequence (P06401 whole entry): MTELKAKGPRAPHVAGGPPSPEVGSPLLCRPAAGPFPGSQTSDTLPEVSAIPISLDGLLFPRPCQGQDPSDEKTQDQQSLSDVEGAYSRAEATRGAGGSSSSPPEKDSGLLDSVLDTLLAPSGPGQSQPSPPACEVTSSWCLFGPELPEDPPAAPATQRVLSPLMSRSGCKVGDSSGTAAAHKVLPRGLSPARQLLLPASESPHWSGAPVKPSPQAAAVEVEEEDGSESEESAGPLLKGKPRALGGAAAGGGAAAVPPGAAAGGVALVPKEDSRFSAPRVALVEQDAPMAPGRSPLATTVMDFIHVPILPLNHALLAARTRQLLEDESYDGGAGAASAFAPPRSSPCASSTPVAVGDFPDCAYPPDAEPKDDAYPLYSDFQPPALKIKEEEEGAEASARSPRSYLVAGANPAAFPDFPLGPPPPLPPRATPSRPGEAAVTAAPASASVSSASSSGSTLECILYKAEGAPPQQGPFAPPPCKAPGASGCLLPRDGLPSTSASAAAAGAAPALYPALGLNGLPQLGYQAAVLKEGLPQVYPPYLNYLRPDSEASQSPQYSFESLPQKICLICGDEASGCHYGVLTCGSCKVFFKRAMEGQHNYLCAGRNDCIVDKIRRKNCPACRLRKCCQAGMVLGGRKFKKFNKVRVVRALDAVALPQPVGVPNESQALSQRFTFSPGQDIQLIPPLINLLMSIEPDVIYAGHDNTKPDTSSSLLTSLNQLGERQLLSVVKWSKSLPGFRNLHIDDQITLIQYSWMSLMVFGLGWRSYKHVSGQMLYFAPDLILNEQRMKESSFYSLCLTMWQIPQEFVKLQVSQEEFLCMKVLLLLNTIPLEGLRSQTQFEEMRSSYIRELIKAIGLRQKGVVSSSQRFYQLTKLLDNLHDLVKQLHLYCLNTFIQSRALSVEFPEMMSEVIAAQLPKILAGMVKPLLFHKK
The experiment in a line: Binding affinity to PR.

Broadly, the IC50 is the concentration needed to halve the response being measured.

For the molecule `CC(C)NS(=O)(=O)c1ccc(-c2ccc3c(cnn3-c3ccc(F)cc3)c2)c(C(F)(F)F)c1`, the IC50 is 1.26 µM at Glucocorticoid receptor [1]; > 10 µM on Glucocorticoid receptor [2]; > 10 µM at Androgen receptor; 0.0126 µM at Glucocorticoid receptor [3]; 3.16 µM on Progesterone receptor.
For `Fc1ccc(-n2ncc3cc(-c4ccccc4)ccc32)cc1`, the IC50 against Glucocorticoid receptor [2] was > 10 µM; against Androgen receptor it was > 10 µM; at Glucocorticoid receptor [3], 3.16 µM; on Progesterone receptor, > 10 µM.
Take `O=S(=O)(Nc1ccc(-c2ccc3c(cnn3-c3ccc(F)cc3)c2)c(C(F)(F)F)c1)c1ccccc1`: the IC50 at Glucocorticoid receptor [1] was 1.58 µM; against Glucocorticoid receptor [2] it was > 10 µM; at Androgen receptor, 6.31 µM; at Glucocorticoid receptor [3] it was 0.0158 µM; at Progesterone receptor, > 10 µM.
On to `Oc1cccc(-c2ccc3c(cnn3-c3ccc(F)cc3)c2)c1`, for which the IC50 against Glucocorticoid receptor [2] is > 10 µM; against Androgen receptor, > 10 µM; on Glucocorticoid receptor [3], 0.794 µM; on Progesterone receptor, 2.51 µM.
With `CCOc1cccc(-c2ccc3c(cnn3-c3ccc(F)cc3)c2)c1`, the IC50 is > 10 µM against Glucocorticoid receptor [2], > 10 µM against Androgen receptor, 2.51 µM on Glucocorticoid receptor [3] and > 10 µM at Progesterone receptor.
Regarding `Oc1ccc(-c2ccc3c(cnn3-c3ccc(F)cc3)c2)cc1`, the IC50 at Glucocorticoid receptor [2] was > 10 µM; against Androgen receptor it was > 10 µM; on Glucocorticoid receptor [3], 0.631 µM; on Progesterone receptor, > 10 µM.
For the molecule `CS(=O)(=O)Nc1ccc(-c2ccc3c(cnn3-c3ccc(F)cc3)c2)c(C(F)(F)F)c1`, the IC50 was 1.58 µM on Glucocorticoid receptor [1]; > 10 µM against Glucocorticoid receptor [2]; 5.01 µM against Androgen receptor; 0.01 µM on Glucocorticoid receptor [3]; > 10 µM at Progesterone receptor.
As for `Fc1ccc(-n2ncc3cc(-c4ccccc4C(F)(F)F)ccc32)cc1`, the IC50 against Glucocorticoid receptor [2] is > 10 µM; against Androgen receptor, > 10 µM; at Glucocorticoid receptor [3], 0.251 µM; at Progesterone receptor it was 2.51 µM.
For `Fc1ccc(-n2ncc3cc(-c4cccc(C(F)(F)F)c4)ccc32)cc1`, the IC50 on Glucocorticoid receptor [2] is > 10 µM; against Androgen receptor, > 10 µM; at Glucocorticoid receptor [3] it was 3.16 µM; at Progesterone receptor it was 1.58 µM.
For `Cc1ccc(-c2ccc3c(cnn3-c3ccc(F)cc3)c2)cc1`, the IC50 against Glucocorticoid receptor [2], on Androgen receptor, at Glucocorticoid receptor [3] and on Progesterone receptor was > 10 µM throughout.
Take `CCOc1ccccc1-c1ccc2c(cnn2-c2ccc(F)cc2)c1`: the IC50 against Glucocorticoid receptor [2] is > 10 µM; against Androgen receptor, > 10 µM; at Glucocorticoid receptor [3] it was 0.501 µM; at Progesterone receptor, > 10 µM.
On to `Cc1cccc(-c2ccc3c(cnn3-c3ccc(F)cc3)c2)c1`, for which the IC50 at Glucocorticoid receptor [2] is > 10 µM; on Androgen receptor, > 10 µM; on Glucocorticoid receptor [3], 3.16 µM; on Progesterone receptor, > 10 µM.
In the case of `CCS(=O)(=O)Nc1ccc(-c2ccc3c(cnn3-c3ccc(F)cc3)c2)c(C(F)(F)F)c1`, the IC50 on Glucocorticoid receptor [1] is 2 µM; against Glucocorticoid receptor [2] it was > 10 µM; against Androgen receptor, 5.01 µM; at Glucocorticoid receptor [3], 0.01 µM; at Progesterone receptor, > 10 µM.
Turning to `Fc1ccc(-n2ncc3cc(-c4ccc(C(F)(F)F)cc4)ccc32)cc1`, the IC50 against Glucocorticoid receptor [2], against Androgen receptor, at Glucocorticoid receptor [3] and on Progesterone receptor was > 10 µM in each case.
For `N#Cc1ccccc1-c1ccc2c(cnn2-c2ccc(F)cc2)c1`, the IC50 on Glucocorticoid receptor [2] is > 10 µM; at Androgen receptor it was > 10 µM; at Glucocorticoid receptor [3] it was 0.398 µM; at Progesterone receptor, > 10 µM.
On to `N#Cc1cccc(-c2ccc3c(cnn3-c3ccc(F)cc3)c2)c1`, for which the IC50 on Glucocorticoid receptor [2] is > 10 µM; against Androgen receptor, > 10 µM; at Glucocorticoid receptor [3], > 2.51 µM; on Progesterone receptor it was > 10 µM.
Consider `N#Cc1ccc(-c2ccc3c(cnn3-c3ccc(F)cc3)c2)cc1`, for which the IC50 against Glucocorticoid receptor [2] was > 10 µM; on Androgen receptor, > 10 µM; at Glucocorticoid receptor [3] it was > 10 µM; on Progesterone receptor, 2 µM.
Regarding `Cc1ccccc1-c1ccc2c(cnn2-c2ccc(F)cc2)c1`, the IC50 was > 10 µM at Glucocorticoid receptor [2], > 10 µM at Androgen receptor, 1.26 µM on Glucocorticoid receptor [3] and 6.31 µM on Progesterone receptor.
